Results published in patent US9062124B2, “GIP-based mixed agonists for treatment of metabolic disorders and obesity” (priority 2008, dated 2015).
Where a SMILES comes first, the peptide text is derived from it. [ ]: non-standard residue; d: D form. The star is where a group is joined. Stearoyl = CCCCCCCCCCCCCCCCCC(=O)*; Palmitoyl = CCCCCCCCCCCCCCCC(=O)*; Myristoyl = CCCCCCCCCCCCCC(=O)*; Aib = CC(C)(N)C(=O)O

How the values were obtained:
Format in all cases: cell-based
[1] = molecular target: T1, glucagon receptor (Homo sapiens, UniProt P47871); assay: cAMP synthesis functional assay (firefly luciferase reporter in HEK293 cells), glucagon receptor; conditions: for EC50: Glucagon Receptor EC50, cAMP luciferase reporter assay as in Example 16; for Glucagon Receptor relative activity: relative to the standard (Std.) EC50 of the same run
T1 construct: expressed in transfected cells; host or cells: HEK293
T1 sequence (P47871 26-477): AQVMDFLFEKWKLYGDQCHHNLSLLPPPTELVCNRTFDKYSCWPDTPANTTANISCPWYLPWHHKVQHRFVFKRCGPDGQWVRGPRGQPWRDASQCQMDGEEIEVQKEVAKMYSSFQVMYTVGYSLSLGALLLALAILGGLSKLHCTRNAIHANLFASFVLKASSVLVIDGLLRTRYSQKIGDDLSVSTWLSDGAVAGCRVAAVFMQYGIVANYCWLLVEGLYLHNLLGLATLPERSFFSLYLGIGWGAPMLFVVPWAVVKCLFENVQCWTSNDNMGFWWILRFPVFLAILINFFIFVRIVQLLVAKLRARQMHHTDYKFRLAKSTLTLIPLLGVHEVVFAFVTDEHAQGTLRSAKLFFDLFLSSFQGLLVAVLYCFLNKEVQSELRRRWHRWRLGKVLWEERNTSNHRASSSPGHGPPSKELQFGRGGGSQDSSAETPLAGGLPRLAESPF

[2] = molecular target: T2, GLP-1 receptor (Homo sapiens, UniProt P43220); assay: cAMP synthesis functional assay (firefly luciferase reporter in HEK293 cells), GLP-1 receptor; conditions: for EC50: GLP-1 Receptor EC50, cAMP luciferase reporter assay as in Example 16; for GLP-1 Receptor relative activity: relative to the standard (Std.) EC50 of the same run
T2 construct: expressed in transfected cells; host or cells: HEK293
T2 sequence (P43220 24-463, species assumed): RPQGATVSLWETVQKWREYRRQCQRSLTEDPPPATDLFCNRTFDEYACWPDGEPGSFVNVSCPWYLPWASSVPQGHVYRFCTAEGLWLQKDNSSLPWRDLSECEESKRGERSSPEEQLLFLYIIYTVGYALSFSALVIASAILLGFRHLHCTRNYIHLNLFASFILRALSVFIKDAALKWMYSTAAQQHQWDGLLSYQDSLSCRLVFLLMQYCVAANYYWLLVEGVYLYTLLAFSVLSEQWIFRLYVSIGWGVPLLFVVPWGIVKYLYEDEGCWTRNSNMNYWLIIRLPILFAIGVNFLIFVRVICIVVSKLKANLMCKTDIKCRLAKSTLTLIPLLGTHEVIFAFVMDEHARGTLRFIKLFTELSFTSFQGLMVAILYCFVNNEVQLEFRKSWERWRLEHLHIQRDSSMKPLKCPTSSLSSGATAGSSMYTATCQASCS

[3] = molecular target: T3, GIP receptor (Homo sapiens, UniProt P48546); assay: cAMP synthesis functional assay (firefly luciferase reporter in HEK293 cells), GIP receptor; conditions: for GIP Receptor relative activity: relative to the standard (Std.) EC50 of the same run; for EC50: GIP Receptor EC50, cAMP luciferase reporter assay as in Example 16
T3 construct: expressed in transfected cells; host or cells: HEK293
T3 sequence (P48546 22-466): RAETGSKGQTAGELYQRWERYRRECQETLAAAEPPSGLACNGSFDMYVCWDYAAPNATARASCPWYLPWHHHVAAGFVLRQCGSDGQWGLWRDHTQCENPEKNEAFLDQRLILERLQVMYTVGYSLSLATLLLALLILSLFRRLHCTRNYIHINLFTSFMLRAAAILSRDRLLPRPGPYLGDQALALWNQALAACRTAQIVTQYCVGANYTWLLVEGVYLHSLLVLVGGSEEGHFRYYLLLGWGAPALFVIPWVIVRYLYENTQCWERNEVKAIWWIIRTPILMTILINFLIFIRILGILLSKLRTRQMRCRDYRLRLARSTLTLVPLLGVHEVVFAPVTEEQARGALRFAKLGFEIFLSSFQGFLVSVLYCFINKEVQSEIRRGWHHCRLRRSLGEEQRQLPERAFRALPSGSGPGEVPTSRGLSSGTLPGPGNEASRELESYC

Structure (SMILES) | EC50 [1] [nM] | Glucagon Receptor relative activity [1] [%] | EC50 [2] [nM] | GLP-1 Receptor relative activity [2] [%] | GIP Receptor relative activity [3] [%] | EC50 [3] [nM]
CCCCCCCCCCCCCC(=O)NCCCC[C@H](NC(=O)[C@H](CC(=O)O)NC(=O)[C@H](CO)NC(=O)[C@@H](NC(=O)[C@H](Cc1ccccc1)NC(=O)[C@@H](NC(=O)CNC(=O)[C@H](CCC(=O)O)NC(=O)C(C)(C)NC(=O)[C@@H](N)Cc1ccc(O)cc1)[C@@H](C)O)[C@@H](C)O)C(=O)N[C@@H](CO)C(=O)N[C@H](C(=O)N[C@@H](Cc1ccc(O)cc1)C(=O)N[C@@H](CC(C)C)C(=O)N[C@@H](CC(=O)O)C(=O)N[C@@H](CCCCN)C(=O)N[C@@H](CCC(N)=O)C(=O)N[C@@H](C)C(=O)N[C@@H](C)C(=O)NC(C)(C)C(=O)N[C@@H](CCC(=O)O)C(=O)N[C@@H](Cc1ccccc1)C(=O)N[C@H](C(=O)N[C@@H](CC(N)=O)C(=O)N[C@@H](Cc1c[nH]c2ccccc12)C(=O)N[C@@H](CC(C)C)C(=O)N[C@@H](CC(C)C)C(=O)N[C@@H](C)C(=O)NCC(N)=O)C(C)C)[C@@H](C)CC [mt-282] (H-Y[Aib]EGTFTSDK(Myristoyl)SIYLDKQAA[Aib]EFVNWLLAG-NH2; N-terminus assumed) | 2.44 | 1.18 | 0.0134 | 44.03 | 76.69 | –
CCCCCCCCCCCCCCCC(=O)NCCCC[C@H](NC(=O)[C@H](CC(=O)O)NC(=O)[C@H](CO)NC(=O)[C@@H](NC(=O)[C@H](Cc1ccccc1)NC(=O)[C@@H](NC(=O)CNC(=O)[C@H](CCC(=O)O)NC(=O)C(C)(C)NC(=O)[C@@H](N)Cc1ccc(O)cc1)[C@@H](C)O)[C@@H](C)O)C(=O)N[C@@H](CO)C(=O)N[C@H](C(=O)N[C@@H](Cc1ccc(O)cc1)C(=O)N[C@@H](CC(C)C)C(=O)N[C@@H](CC(=O)O)C(=O)N[C@@H](CCCCN)C(=O)N[C@@H](CCC(N)=O)C(=O)N[C@@H](C)C(=O)N[C@@H](C)C(=O)NC(C)(C)C(=O)N[C@@H](CCC(=O)O)C(=O)N[C@@H](Cc1ccccc1)C(=O)N[C@H](C(=O)N[C@@H](CC(N)=O)C(=O)N[C@@H](Cc1c[nH]c2ccccc12)C(=O)N[C@@H](CC(C)C)C(=O)N[C@@H](CC(C)C)C(=O)N[C@@H](C)C(=O)NCC(N)=O)C(C)C)[C@@H](C)CC [mt-283] (H-Y[Aib]EGTFTSDK(Palmitoyl)SIYLDKQAA[Aib]EFVNWLLAG-NH2; N-terminus assumed) | 7.94 | 0.36 | 0.0158 | 37.34 | 83.61 | –
CCCCCCCCCCCCCCCCCC(=O)NCCCC[C@H](NC(=O)[C@H](CC(=O)O)NC(=O)[C@H](CO)NC(=O)[C@@H](NC(=O)[C@H](Cc1ccccc1)NC(=O)[C@@H](NC(=O)CNC(=O)[C@H](CCC(=O)O)NC(=O)C(C)(C)NC(=O)[C@@H](N)Cc1ccc(O)cc1)[C@@H](C)O)[C@@H](C)O)C(=O)N[C@@H](CO)C(=O)N[C@H](C(=O)N[C@@H](Cc1ccc(O)cc1)C(=O)N[C@@H](CC(C)C)C(=O)N[C@@H](CC(=O)O)C(=O)N[C@@H](CCCCN)C(=O)N[C@@H](CCC(N)=O)C(=O)N[C@@H](C)C(=O)N[C@@H](C)C(=O)NC(C)(C)C(=O)N[C@@H](CCC(=O)O)C(=O)N[C@@H](Cc1ccccc1)C(=O)N[C@H](C(=O)N[C@@H](CC(N)=O)C(=O)N[C@@H](Cc1c[nH]c2ccccc12)C(=O)N[C@@H](CC(C)C)C(=O)N[C@@H](CC(C)C)C(=O)N[C@@H](C)C(=O)NCC(N)=O)C(C)C)[C@@H](C)CC [mt-284] (H-Y[Aib]EGTFTSDK(Stearoyl)SIYLDKQAA[Aib]EFVNWLLAG-NH2; N-terminus assumed) | 4.17 | 0.69 | 0.0155 | 38.06 | 54.84 | –
CC[C@H](C)[C@H](NC(=O)[C@H](CO)NC(=O)[C@H](Cc1ccc(O)cc1)NC(=O)[C@H](CC(=O)O)NC(=O)[C@H](CO)NC(=O)[C@@H](NC(=O)[C@H](Cc1ccccc1)NC(=O)[C@@H](NC(=O)CNC(=O)[C@H](CCC(=O)O)NC(=O)C(C)(C)NC(=O)[C@@H](N)Cc1ccc(O)cc1)[C@@H](C)O)[C@@H](C)O)C(=O)N[C@@H](Cc1ccc(O)cc1)C(=O)N[C@@H](CC(C)C)C(=O)N[C@@H](CC(=O)O)C(=O)N[C@@H](CCCCN)C(=O)N[C@@H](CCC(N)=O)C(=O)N[C@@H](C)C(=O)N[C@@H](C)C(=O)NC(C)(C)C(=O)N[C@@H](CCC(=O)O)C(=O)N[C@@H](Cc1ccccc1)C(=O)N[C@H](C(=O)N[C@@H](CS)C(=O)N[C@@H](Cc1c[nH]c2ccccc12)C(=O)N[C@@H](CC(C)C)C(=O)N[C@@H](CC(C)C)C(=O)N[C@@H](C)C(=O)NCC(=O)NCC(=O)N1CCC[C@H]1C(=O)N[C@@H](CO)C(=O)N[C@@H](CO)C(=O)NCC(=O)N[C@@H](C)C(=O)N1CCC[C@H]1C(=O)N1CCC[C@H]1C(=O)N1CCC[C@H]1C(=O)N[C@@H](CO)C(=O)N[C@@H](CCCCN)C(N)=O)C(C)C [mt-308] | 12.2 | 0.39 | – | 68.35 | 285.96 | 0.0057
CCCCCCCCCCCCCC(=O)NCCCC[C@@H](NC(=O)[C@H](CO)NC(=O)[C@@H]1CCCN1C(=O)[C@@H]1CCCN1C(=O)[C@@H]1CCCN1C(=O)[C@H](C)NC(=O)CNC(=O)[C@H](CO)NC(=O)[C@H](CO)NC(=O)[C@@H]1CCCN1C(=O)CNC(=O)CNC(=O)[C@H](C)NC(=O)[C@H](CC(C)C)NC(=O)[C@H](CC(C)C)NC(=O)[C@H](Cc1c[nH]c2ccccc12)NC(=O)[C@H](CS)NC(=O)[C@@H](NC(=O)[C@H](Cc1ccccc1)NC(=O)[C@H](CCC(=O)O)NC(=O)C(C)(C)NC(=O)[C@H](C)NC(=O)[C@H](C)NC(=O)[C@H](CCC(N)=O)NC(=O)[C@H](CCCCN)NC(=O)[C@H](CC(=O)O)NC(=O)[C@H](CC(C)C)NC(=O)[C@H](Cc1ccc(O)cc1)NC(=O)[C@@H](NC(=O)[C@H](CO)NC(=O)[C@H](Cc1ccc(O)cc1)NC(=O)[C@H](CC(=O)O)NC(=O)[C@H](CO)NC(=O)[C@@H](NC(=O)[C@H](Cc1ccccc1)NC(=O)[C@@H](NC(=O)CNC(=O)[C@H](CCC(=O)O)NC(=O)C(C)(C)NC(=O)[C@@H](N)Cc1ccc(O)cc1)[C@@H](C)O)[C@@H](C)O)[C@@H](C)CC)C(C)C)C(N)=O [mt-333] | 0.691 | 2.80 | 0.0028 | 85.71 | 226.47 | 0.0034
CC[C@H](C)[C@H](NC(=O)[C@H](CO)NC(=O)[C@H](Cc1ccc(O)cc1)NC(=O)[C@H](CC(=O)O)NC(=O)[C@H](CO)NC(=O)[C@@H](NC(=O)[C@H](Cc1ccccc1)NC(=O)[C@@H](NC(=O)CNC(=O)[C@H](CCC(=O)O)NC(=O)C(C)(C)NC(=O)[C@@H](N)Cc1ccc(O)cc1)[C@@H](C)O)[C@@H](C)O)C(=O)N[C@@H](Cc1ccc(O)cc1)C(=O)N[C@@H](CC(C)C)C(=O)N[C@@H](CC(=O)O)C(=O)N[C@@H](CCCCN)C(=O)N[C@@H](CCC(N)=O)C(=O)N[C@@H](C)C(=O)N[C@@H](C)C(=O)NC(C)(C)C(=O)N[C@@H](CCC(=O)O)C(=O)N[C@@H](Cc1ccccc1)C(=O)N[C@H](C(=O)N[C@@H](CS)C(=O)N[C@@H](Cc1c[nH]c2ccccc12)C(=O)N[C@@H](CC(C)C)C(=O)N[C@@H](CC(C)C)C(=O)N[C@@H](C)C(=O)NCC(=O)NCC(=O)N1CCC[C@H]1C(=O)N[C@@H](CO)C(=O)N[C@@H](CO)C(=O)NCC(=O)N[C@@H](C)C(=O)N1CCC[C@H]1C(=O)N1CCC[C@H]1C(=O)N1CCC[C@H]1C(=O)N[C@@H](CO)C(=O)N[C@H](CCCCN)C(N)=O)C(C)C [mt-334] | 7.07 | 0.27 | 0.0034 | 70.59 | 187.80 | 0.0041
